{"source": "patent US20120108538A1", "about": "“SULFATED POLYSACCHARIDES HAVING ANTIPLASMODIAL ACTIVITY AND METHODS AND PRODUCTS FOR IDENTIFYING ANTIPLASMODIAL ACTIVITY” (priority 2009, published 2012)", "key": {"[1]": {"tested_on": "P. falciparum blood stage growth", "assay": "Growth inhibition assay (GIA), flow cytometry", "type": "cell-based, Plasmodium falciparum", "settings": "for inhibitory activity against P. falciparum blood stage growth in GIA (words) / IC50, inhibition of P. falciparum blood stage growth in GIA: 3D7 parasite line; for IC50, inhibition of P. falciparum blood stage growth in GIA: one cycle of parasite growth", "protocol": "P. falciparum was cultured as described. Parasites were maintained in culture media of RPMI-HEPES supplemented with 5% (vol/vol) heat inactivated (56° C. 1 hr) human serum (Australian Red Cross Blood Bank),. […] (Gibco), 10mM L-glutamine (Gibco) and 25 mM […]. Parasites were grown at 37° C., 2% hematocrit, O+ human erythrocytes (Australian Red Cross Blood Bank), 1% O2 4% CO2 95% N2 atmosphere. Sorbitol (Sigma-Aldrich) was used to synchronize cultures. 32. Persson K E, Lee C T, Marsh K, Beeson J G (2006) Development and optimization of high-throughput methods to measure Plasmodium falciparum-specific growth inhibitory antibodies. J Clin Microbiol 44: 1665-1673.33. Lambros C, Vanderberg J P (1979) Synchronization of Plasmodium falciparum erythrocytic stages in culture. J Parasitol 65: 418-420.\nHeparin and K5 polysaccharides (Table 1) were tested for inhibitory activity against P. falciparum parasites using high throughput growth inhibitory assays (GlAs). Duplicate 25 μl suspensions of synchronized parasites, 2% parasitemia (32 hr trophozoite), 1% hematocrit with normal or enzymatically treated erythrocyctes, were incubated with inhibitory compounds in 96 well sterile U-bottom plates (Falcon). For humidification, outside wells were filled with sterile human tonicity phosphate-buffered saline (HT-PBS). Plates were incubated as for parasite culture for 44 hrs and analyzed. Parasites were stained with 10 μg/mL ethidium bromide (EtBr) (BioRad), HT-PBS, 1 hr in darkness. Cells were washed and re-suspended in 200 μL HT-PBS. Parasitemia was measured using FACSCalibur flow-cytometry. Data were analyzed using FlowJo (Tree Star), gating on intact erythrocytes and determining parasitemia by EtBr staining. Inhibitory effects of compounds were expressed as percent growth of uninhibited controls (HT-PBS) for each experiment.\nErythrocytes were treated with neuraminidase, chymotrypsin and trypsin as described previously. Erythrocytes were washed with RPMI-HEPES and incubated with neuraminidase ([…], 15 minutes), chymotrypsin (1 mg/mL, 45 minutes) or trypsin (100 μg/mL, […]) at 37° C. Neuraminidase treated bells were washed three times with RPMI-HEPES and chymotrypsin and trypsin treated cells were washed once with culture media and twice with RPMI-HEPES and then used in GIAs. 34. Persson K E, McCallum F J, Reiling L, Lister N A, Stubbs J, et al. (2008) Variation in use of erythrocyte invasion pathways by Plasmodium falciparum mediates evasion of human inhibitory antibodies. J Clin Invest 118: 342-351."}, "[2]": {"tested_on": "purified P. falciparum merozoites invading RBCs", "assay": "Invasion inhibition assay (IIA) using purified merozoites", "type": "cell-based, Plasmodium falciparum", "protocol": "Purified merozoites were mixed with uninfected RBCs and cultured using standard conditions in 96 well U-bottom plates at a final volume of 50 μl or 100 μl per well. Specific assay conditions were varied for different test conditions, as described in the Results section of the manuscript. Assays were typically performed under static conditions. Some assays were also performed with agitation of merozoite:RBC suspensions.\nTo test the activity of inhibitory compounds on invasion (Supporting Information Table 3), E64 treated schizonts were resuspended and filtered in culture medium without human serum. A typical merozoite invasion inhibition assay consisted of filtered merozoites (40 ul) added to RBC suspension (5 ul at […]; final concentration 1% hematocrit) and inhibitory compounds (5 ul at 10-times the final concentration required) in 96-well plates. Merozoite:RBCs suspensions containing inhibitors were incubated for one hour and then washed twice with culture medium to remove inhibitors, then resuspended in fresh culture media and incubated and analysed as for standard merozoite invasion assays. A number of compounds were also tested for inhibition of schizont rupture by incubating late stage schizonts (1-2% parasitaemia, 1% haematocrit in 50 ul) with a 1 in 10 dilution of compounds and monitoring the course of schizont rupture at 3 time points over an 8 hour period by flow cytometry."}, "MSP1-42 [3]": {"target": "T1, MSP1-42 (Plasmodium falciparum, UniProt Q8I0U8)", "T1 sequence (Q8I0U8 1327-1699)": "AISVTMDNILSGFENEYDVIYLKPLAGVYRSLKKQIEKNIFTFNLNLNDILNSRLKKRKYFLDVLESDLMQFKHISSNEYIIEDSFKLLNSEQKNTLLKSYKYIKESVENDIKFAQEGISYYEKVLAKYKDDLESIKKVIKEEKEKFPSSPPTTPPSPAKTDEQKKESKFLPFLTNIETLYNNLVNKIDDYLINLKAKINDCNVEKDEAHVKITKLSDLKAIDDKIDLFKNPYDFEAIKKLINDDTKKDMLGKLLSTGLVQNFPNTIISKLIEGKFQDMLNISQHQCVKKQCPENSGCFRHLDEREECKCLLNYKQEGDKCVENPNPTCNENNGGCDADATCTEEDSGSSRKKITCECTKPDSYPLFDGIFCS", "assay": "Heparin-BSA binding assay", "parameters": "a C-terminal 42kDa (MSP1-42) fragment; made in house; host or cells: E. coli; species or system P. falciparum", "settings": "soluble inhibitor", "protocol": "(§1) Recombinant merozoite antigens were coated (1 μg/mL) onto 96 well plates (Nunc Maxisorb) in HT-PBS overnight at 4° C. Plates were washed and blocked with 1% casein, 1 hr, room temperature. Plates were incubated with heparin-BSA conjugate with soluble inhibitors and detected with anti-BSA (rabbit) (Sigma-Aldrich) antibodies and anti-rabbit -HRP. Detection was performed with 2,2′-azino-bis(3-ethylbenzthiazoline-6-sulphonic acid) (Sigma-Aldrich) monitored for colour change and measured for absorbance at 405 nm. All incubations were performed in HT-PBS 0.1% casein 0:05% Tween20, 1 hr at room temperature. Plates were washed 3 times HT-PBS 0.05% Tween20 between incubations."}, "MSP1-42 [4]": {"target": "T1, MSP1-42", "assay": "Binding of native merozoite proteins to heparin-agarose beads with soluble inhibitors", "parameters": "proteolytically processed into 83 kDa, 30 kDa, 38 kDa and a C-terminal 42kDa (MSP1-42) fragment; endogenous in cells; host or cells: P. falciparum schizont-stage cultures, Triton X-100 extract; species or system P. falciparum", "settings": "soluble inhibitor 200 μg/mL", "from_the_text": "Synchronized schizont stage (40-48 hr, 5-8% parasitemia) cultures were used for protein extraction. Uninfected erythrocytes were lysed with 0.15% saponin (Kodak) on ice for ten minutes. Remaining pellets were washed three times with cold HT-PBS. Protein from schizonts was extracted with 5 times volume of 1% TritonX100 (TX100) (Sigma-Aldrich, Australia), HT-PBS with protease inhibitors (Roche). Insoluble components were pelleted by centrifugation and supernatants collected. Schizont TX100 extracted proteins were bound to heparin-agarose beads (Sigma-Aldrich, Australia) as previously described. Heparin-agarose beads were washed once with 1% casein in PBS, once in PBS, and then blocked with 1% casein in PBS overnight at 4° C. TX100 merozoite protein extracts where incubated with beads containing 0.1% casein and 200 μg/mL of test inhibitor, or PBS as control, overnight at 4° C.; 50 μL of packed beads and 100 μL protein and inhibitor were used or each test sample. Inhibitors used were heparin and CSC. Unbound proteins in the supernatant were collected through Micro Bio-Spin Chromatography Columns (Bio-Rad). After incubation, beads were washed five times with PBS containing 0.1% casein and 1% Triton X-100. Bound proteins were eluted from beads with 50 μL of warmed reducing sample buffer. Bound and unbound proteins were separated by SDS-PAGE under reducing conditions and blotted onto membranes for probing with antibody detection with anti-MSP1 or anti-EBA175. 36. Baum J, Chen L, Healer J, Lopaticki S, Boyle M, et al. (2009) Reticulocyte-binding protein homologue 5—an essential adhesin involved in invasion of human erythrocytes by Plasmodium falciparum: Int J Parasitol 39: 371-380."}, "lactoferrin": {"target": "T2, lactoferrin (Homo sapiens, UniProt P02788)", "T2 construct": "purchased", "T2 sequence (P02788 20-710, species assumed)": "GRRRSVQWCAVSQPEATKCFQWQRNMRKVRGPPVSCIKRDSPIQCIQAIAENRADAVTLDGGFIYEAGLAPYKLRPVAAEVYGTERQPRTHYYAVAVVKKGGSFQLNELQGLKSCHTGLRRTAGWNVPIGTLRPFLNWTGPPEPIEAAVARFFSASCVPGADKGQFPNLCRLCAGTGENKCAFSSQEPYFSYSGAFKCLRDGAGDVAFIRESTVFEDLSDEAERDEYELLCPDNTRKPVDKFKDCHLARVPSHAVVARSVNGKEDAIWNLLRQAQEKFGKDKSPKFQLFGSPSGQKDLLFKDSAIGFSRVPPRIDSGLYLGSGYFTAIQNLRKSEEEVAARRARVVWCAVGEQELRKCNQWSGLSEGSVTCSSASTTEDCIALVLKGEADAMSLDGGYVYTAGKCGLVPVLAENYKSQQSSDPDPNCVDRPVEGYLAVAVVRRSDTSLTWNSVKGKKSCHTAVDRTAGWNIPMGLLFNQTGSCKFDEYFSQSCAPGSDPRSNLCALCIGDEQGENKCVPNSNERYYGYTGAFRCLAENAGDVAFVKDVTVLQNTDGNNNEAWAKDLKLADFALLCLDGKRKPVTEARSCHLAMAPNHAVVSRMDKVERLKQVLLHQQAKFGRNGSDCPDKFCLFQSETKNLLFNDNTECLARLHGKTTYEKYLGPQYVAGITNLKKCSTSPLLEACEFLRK", "assay": "Heparin-BSA binding assay (positive control protein)", "settings": "data not shown", "protocol": "as §1"}, "P. falciparum schizonts": {"tested_on": "P. falciparum schizonts", "assay": "Schizont rupture under E64 treatment", "type": "cell-based, Plasmodium falciparum", "settings": "10 uM E64", "protocol": "Parasites were then incubated until most parasites had developed to late-stage pigmented trophozoites and schizonts (typically 40-42 hours). Early to mid schizont stage parasites (40-44 hours post invasion) were separated from uninfected RBC and early-stage infected RBCs (resulting in >95% purity) with a MAC magnet separation column (Macs Miltenyi Biotec). Purified schizonts were then incubated with 10 uM of E64 (Sigma) for 7-8 hours; Applicant typically used approximately 30 ml of culture media for every 100 ml of starting culture (3% hematocrit, 3% parasitemia). After approximately 6 hours of incubation with E64, treated schizonts were pelleted by centrifugation at 1900 g for 5 minutes. Supernatant was removed and schizonts were resuspended in fresh culture media. Resuspended E64 treated parasites were filtered through a 1.2 um Acrodisc 32 mm syringe filter (Pall Corporation). […]\nTo test the activity of inhibitory compounds on invasion (Supporting Information Table 3), E64 treated schizonts were resuspended and filtered in culture medium without human serum. […] Merozoite:RBCs suspensions containing inhibitors were incubated for one hour and then washed twice with culture medium to remove inhibitors, then resuspended in fresh culture media and incubated and analysed as for standard merozoite invasion assays. […]"}}, "note": "Entries after “also recorded” stand apart in the source; their conditions may differ. Ends that are not written are not given here.", "data": [{"compound": "chondroitin sulfate B-2-6-di-sulfated [CSB-2,6-OS]", "values": [{"measurement": "inhibitory activity against P. falciparum blood stage growth in GIA (words)", "setting": "[1]", "value": "some inhibitory activity"}]}, {"compound": "CO[C@H]1O[C@H](COS(=O)(=O)O)[C@@H](O[C@@H]2O[C@@H](C(=O)O)[C@@H](O[C@H]3O[C@H](COS(=O)(=O)O)[C@@H](O[C@@H]4O[C@H](C(=O)O)[C@@H](O[C@H]5O[C@H](COS(=O)(=O)O)[C@@H](O)[C@H](O)[C@H]5NS(=O)(=O)O)[C@H](O)[C@H]4O)[C@H](OS(=O)(=O)O)[C@H]3NS(=O)(=O)O)[C@H](O)[C@H]2OS(=O)(=O)O)[C@H](O)[C@H]1NS(=O)(=O)O", "note": "[Fondaparinux]", "values": [{"measurement": "IC50", "setting": "[1]; Plasmodium falciparum, read-out: IC50 against Plasmodium falciparum invasion", "value": "~100", "unit": "mg/L"}]}, {"compound": "O=C(O)CN(CCN(CC(=O)O)CC(=O)O)CC(=O)O", "note": "[EDTA]", "values": [{"measurement": "inhibition of merozoite invasion in IIA", "setting": "[2]", "value": "inhibited invasion"}]}, {"compound": "chondroitin sulfate E [CSE]", "values": [{"measurement": "inhibition of different P. falciparum lines", "setting": "[1]; 3D7, W2mef, D10, E8B, XIE, HCS3, SA-dependent and SA-independent invasion", "value": "inhibited to similar levels"}, {"measurement": "IC50, inhibition of P. falciparum blood stage growth in GIA", "setting": "[1]", "value": 26.7, "unit": "mg/L"}]}, {"compound": "fucoidan", "values": [{"measurement": "IC50, inhibition of P. falciparum blood stage growth in GIA", "setting": "[1]", "value": 38, "unit": "mg/L"}]}, {"compound": "de-N de-O-sulfated heparin [de-N/O-sulfated heparin]", "values": [{"measurement": "inhibitory activity against P. falciparum blood stage growth in GIA (words)", "setting": "[1]", "value": "loss of inhibitory activity"}, {"measurement": "inhibitory activity against P. falciparum blood stage growth in GIA (words)", "setting": "[1]; listed as Completely desulfated heparin", "value": "no activity"}, {"measurement": "inhibition of heparin-BSA binding to recombinant MSP1-42", "setting": "MSP1-42 [3]", "value": "inhibition"}]}, {"compound": "VFAEFLPLFSKFGSRMHILK [AMA1-binding peptide]", "values": [{"measurement": "inhibition of merozoite invasion in IIA", "setting": "[2]", "value": "effectively inhibited merozoite invasion"}]}, {"compound": "de-2-O-sulfated heparin", "values": [{"measurement": "inhibitory activity against P. falciparum blood stage growth in GIA (words)", "setting": "[1]", "value": "reduced activity"}, {"measurement": "IC50, inhibition of P. falciparum blood stage growth in GIA", "setting": "[1]", "value": 123, "unit": "mg/L"}]}, {"compound": "chondroitin sulfate B-2,4-di-sulfated [CSB-2,4-OS]", "values": [{"measurement": "inhibitory activity against P. falciparum blood stage growth in GIA (words)", "setting": "[1]", "value": "not inhibitory"}]}, {"compound": "de-6-O-sulfated heparin", "values": [{"measurement": "inhibitory activity against P. falciparum blood stage growth in GIA (words)", "setting": "[1]", "value": "reduced activity"}, {"measurement": "IC50, inhibition of P. falciparum blood stage growth in GIA", "setting": "[1]", "value": 373, "unit": "mg/L"}, {"measurement": "inhibition of heparin-BSA binding to recombinant MSP1-42", "setting": "MSP1-42 [3]", "value": "inhibition"}, {"measurement": "inhibition of native MSP1-42 binding to heparin-agarose beads", "setting": "MSP1-42 [4]", "value": "not"}, {"measurement": "inhibition of native MSP1-42 binding to heparin-agarose beads", "setting": "MSP1-42 [4]; listed as de-60-sulfated", "value": "unable to inhibit binding"}]}, {"compound": "dextran sulfate", "values": [{"measurement": "IC50, inhibition of P. falciparum blood stage growth in GIA", "setting": "[1]", "value": 37, "unit": "mg/L"}]}, {"compound": "C=C1[C@@H](C)[C@H]2[C@H](Cc3ccccc3)NC(=O)[C@]23[C@H](OC(C)=O)/C=C/[C@@](C)(O)C(=O)[C@@H](C)C/C=C/[C@H]3[C@@H]1O", "note": "[cytochalasin D]", "values": [{"measurement": "inhibition of merozoite invasion in IIA", "setting": "[2]", "value": "effectively inhibited merozoite invasion"}]}, {"compound": "de-N-sulfated heparin", "values": [{"measurement": "inhibitory activity against P. falciparum blood stage growth in GIA (words)", "setting": "[1]", "value": "no activity"}, {"measurement": "inhibitory activity against P. falciparum blood stage growth in GIA (words)", "setting": "[1]; listed as de-N-sulfated", "value": "loss of inhibitory activity"}, {"measurement": "inhibition of native MSP1-42 binding to heparin-agarose beads", "setting": "MSP1-42 [4]", "value": "not"}, {"measurement": "inhibition of native MSP1-42 binding to heparin-agarose beads", "setting": "MSP1-42 [4]; listed as de-N-sulfated", "value": "unable to inhibit binding"}]}, {"compound": "chondroitin sulfate C [CSC]", "values": [{"measurement": "inhibitory activity against P. falciparum blood stage growth in GIA (words)", "setting": "[1]", "value": "non-inhibitory; also recorded: not inhibitory"}, {"measurement": "inhibition of lactoferrin binding to heparin-BSA", "setting": "lactoferrin", "value": "not"}, {"measurement": "inhibition of native MSP1-42 binding to heparin-agarose beads", "setting": "MSP1-42 [4]", "value": "not"}]}, {"compound": "chondroitin sulfate D [CSD]", "values": [{"measurement": "inhibitory activity against P. falciparum blood stage growth in GIA (words)", "setting": "[1]", "value": "not inhibitory"}]}, {"compound": "CC(C)C[C@H](NC(=O)[C@H]1O[C@@H]1C(=O)O)C(=O)NCCCCN=C(N)N", "note": "(relative stereo) [E64, trans-Epoxysuccinyl-L-leucylamido(4-guanidino)butane]", "values": [{"measurement": "effect on invasive capacity of merozoites", "setting": "[2]; merozoites incubated with E64", "value": "did not affect"}, {"measurement": "effect on schizont rupture / merozoite release", "setting": "P. falciparum schizonts", "value": "inhibiting rupture"}]}]}
